Structures are written as SMILES.

One series in a line: Solubility in water. The class given is physicochemical. The conditions noted are these: 25° C., RH 65%, 100 g deionized water, added 0.1 g at a time. As for the experimental part:
Specifically, the measurement is performed by adding the compound in an amount of 0.1 g at a time.

A short description of series [1]: Maximum absorption wavelength (absorption spectrum, spectrophotometer). In kind it is physicochemical. The text has this: (2) load the measurement aqueous solution to a quartz cell (optical path length=10 mm, thickness 1.25 mm), and measure the absorption spectrum using a spectrophotometer (e.g., visible-ultraviolet absorption spectrometer V-670 manufactured by JASCO Corporation). As the absorption spectrum of the measurement aqueous solution, a corrected absorption spectrum obtained by measuring the absorption spectrum of water alone in advance and deducting this absorption spectrum of water from the absorption spectrum of the measurement aqueous solution is used. […] (2) The thus obtained measurement aqueous solutions were each loaded to a quartz cell (optical path length—10 mm, thickness 1.25 mm), and an absorption spectrum was measured using a spectrophotometer (e.g., visible-ultraviolet absorption spectrometer V-670 manufactured by JASCO Corporation). […] Further, as the absorption spectrum, a corrected absorption spectrum obtained by measuring the absorption spectrum of the solvent itself in advance and deducting this absorption spectrum of the solvent from the absorption spectrum of the measurement solution was used.

Where [2] appears, read: 0.1%-by-mass aqueous solution, range of 300 nm to 600 nm.
The mark [3] stands for this setting: measurement solution in acetonitrile (low solubility in water).

Consider `CC(C)(O)C(=O)c1ccc(OCCO)cc1` [Compound 101], for which the “Solubility in 100 parts by mass of water” value in “Solubility in water” came out at 0.8 parts by mass. In series [1] (setting [2]), this compound came in with a Maximum absorption wavelength of 270 nm.
Consider `O=C(c1ccccc1)c1ccccc1` [Compound 103, benzophenone], for which, in series [1] (setting [3]), the Maximum absorption wavelength is on record as 253 nm.
`Cc1cc(C)c(C(=O)P(=O)(O)c2ccccc2)c(C)c1` [Compound 105]: in the series “Solubility in water”, the “Solubility in 100 parts by mass of water” value is reported as not below 50 parts by mass. The compound also had a Maximum absorption wavelength in series [1] (setting [2]) of 371 nm.
As to `O=C(O)c1cccc2c(=O)c3ccccc3sc12` [Compound 61], the “Solubility in 100 parts by mass of water” value in “Solubility in water” is 1.2 parts by mass.
For `CC12CCC(C(=O)C1=O)C2(C)C` (centres unmarked) [Compound 104, camphor quinone], the “Solubility in 100 parts by mass of water” value in the series “Solubility in water” is reported as less than 0.1 parts by mass. In series [1] (setting [3]), this compound showed a Maximum absorption wavelength of 460 nm.
For the compound `O=C(O)c1cccc2c(=O)c3ccccc3sc12` [Compound 1], the “Solubility in 100 parts by mass of water” value in the series “Solubility in water” was 0.9 parts by mass.
`O=C(O)c1cccc2c(=O)c3ccccc3sc12` [Compound 106, thioxanthone carboxylic acid]: the “Solubility in 100 parts by mass of water” value in “Solubility in water” is listed as less than 0.1 parts by mass. Also, in series [1] (setting [3]), the Maximum absorption wavelength is 391 nm.

The values are drawn from patent US11618742B2, “Radical polymerization initiator, composition containing same, cured product of composition, production method for cured product, and compound” (ADEKA CORPORATION, priority 2018, dated 2023).
